According to patent US20260199325A1, “NOVEL SUBSTITUTED PYRAZINE-CARBOXAMIDE-IMIDAZOPYRIDINE DERIVATIVES” (Boehringer Ingelheim International GmbH, priority 2022, published 2026):

Biological target: T1, human metabotropic Glutamate 4 receptor (Homo sapiens, UniProt Q14833)
T1 construct: expressed in transfected cells; host or cells: HEK293
Assay: In vitro testing of mGluR4 potency (Assay A), cAMP HTRF in HEK293 cells
Assay type: cell-based
Conditions: Table 2; HEK293 cell overexpressing human mGluR4; 10 uM L-Glutamic acid, 1 uM forskolin
Method: A. In Vitro Testing of mGluR4 Potency
The in vitro activity of the compounds according to the invention may be investigated as follows:
The HEK293 cell overexpressing the human metabotropic Glutamate 4 receptor were thawed at 37° C. and immediately diluted with cell culture medium. After centrifugation, the cell pellet is re-suspended in medium and then distributed from a stirred spinner flask into the wells of the assay plate. The plates are incubated for one hour at room temperature before they are incubated for 24 hours at 37° C./5% C02. After washing the cells in the plate three times with 80 uL HBSS/HEPES buffer (10 uL buffer remained in the wells after washing), 5 uL per well of compounds diluted in HBSS/HEPES buffer containing 0.2% BSA (final concentration: 0.1%) and 1 mM IBMX (final concentration: 0.5 mM) are added to the wells of the assay plate. Thereafter 5 uL per well of L-Glutamic acid (final concentration: 10 uM), forskolin (final concentration: 1 uM) and 1 mM IBMX (final concentration: 0.5 mM) dissolved in HBSS/HEPES buffer containing 0.2% BSA (final concentration: 0.1%) are added to the assay plate (final DMSO concentration: 1%). Several wells of the assay plate are used either for the positive and the negative controls or for the cAMP standard curve. The assay plate is incubated for 30 minutes at room temperature. Then 5 ul per well of Anti-cAMP-Antibody-d2 solution and 5 ul per well of cAMP-Europium Cryptate dilution are added to all wells of the plate and the plate is incubated another 60 minutes light protected at room temperature. The emission at 615 nm and 665 nm (Excitation wavelength: 320 nm) are measured on the EnVision™ reader (PerkinElmer). The ratio between the emission at 665 nm and 615 is calculated by the reader. The whole assay is performed in the dark or under green light.
The cAMP standard is prepared by diluting the cAMP stock solution with HBSS/Hepes buffer: 5 μl/well of the cAMP dilutions (in HBSS/Hepes buffer containing 1 mM IBMX and 0.2% BSA-final concentration: 0.5 mM IBMX and 0.1% BSA) are added to 10 ul/well HBSS/Hepes buffer plus 5 ul/well 4% DMSO in HBSS/Hepes containing 0.2% BSA (final DMSO concentration: 1%-like in the wells containing compounds) in the wells of the assay plate. The final cAMP concentrations in the assay plate were: 0, 0.17, 0.69, 2.78, 11.1, 44.5, 178, and 712 nM (two wells/cAMP concentration).
Each assay microtiter plate contained also wells with vehicle controls instead of compound as controls for L-Glutamic acid induced signal (negative control; 100% CTL; 10 uM L-Glutamic acid+1 uM forskolin+0.5 mM IBMX+1% DMSO) and wells with vehicle controls without L-Glutamic acid as controls for non-specific changes in signal (positive control; 0% CTL; 0 uM L-Glutamic acid+1 uM forskolin+0.5 mM IBMX+1% DMSO).
The analysis of the data is performed by the calculation the ratio between the emission at 665 nm and the emission at 615 nm (Em665/Em615 ratio). Thereafter the signals of the compounds are normalized using the positive and negative controls by the following formula:
PoC=100×((Signal Sample−Positive Control)/(Negative Control−Positive Control))

T1 sequence (Q14833 33-912): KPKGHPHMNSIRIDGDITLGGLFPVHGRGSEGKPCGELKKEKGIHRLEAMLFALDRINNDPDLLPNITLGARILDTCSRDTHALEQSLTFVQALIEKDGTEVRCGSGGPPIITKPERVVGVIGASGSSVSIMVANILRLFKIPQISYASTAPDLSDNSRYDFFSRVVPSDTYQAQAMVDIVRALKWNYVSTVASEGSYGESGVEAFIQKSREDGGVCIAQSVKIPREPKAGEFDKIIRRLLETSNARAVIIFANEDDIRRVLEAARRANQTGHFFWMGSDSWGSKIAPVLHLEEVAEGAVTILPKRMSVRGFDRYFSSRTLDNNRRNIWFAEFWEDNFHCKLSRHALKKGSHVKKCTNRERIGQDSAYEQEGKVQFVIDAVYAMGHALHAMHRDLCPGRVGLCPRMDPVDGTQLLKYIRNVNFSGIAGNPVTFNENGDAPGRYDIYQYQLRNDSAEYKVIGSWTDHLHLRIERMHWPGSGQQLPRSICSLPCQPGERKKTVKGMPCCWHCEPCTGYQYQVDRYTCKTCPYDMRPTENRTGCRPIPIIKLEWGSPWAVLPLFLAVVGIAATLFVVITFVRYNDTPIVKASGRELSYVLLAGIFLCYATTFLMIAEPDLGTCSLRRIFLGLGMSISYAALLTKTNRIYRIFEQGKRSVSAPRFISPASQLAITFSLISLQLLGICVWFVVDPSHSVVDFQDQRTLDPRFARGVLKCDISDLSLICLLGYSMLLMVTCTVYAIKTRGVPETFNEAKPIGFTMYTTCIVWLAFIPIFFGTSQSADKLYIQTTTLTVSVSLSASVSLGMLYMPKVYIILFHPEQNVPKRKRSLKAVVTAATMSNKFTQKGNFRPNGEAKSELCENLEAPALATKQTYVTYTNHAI

SMILES	IC50
Cc1cnc(C(=O)N[C@H](c2nc3cc(C(F)(F)F)cnc3n2C(C)C)C2CC2)cn1 [Example 3, N-[(S)-cyclopropyl[3-(propan-2-y1)-6-(trifluoromethyl)-3H-imidazo[4,5-b]pyridin-2-y1]methyl]-5-methylpyrazine-2-carboxamide]	2 nM
COc1c(Br)cnc2c1nc([C@@H](NC(=O)c1cnc(C)cn1)C1CC1)n2C(C)C [Example 5, N-[(S)-[6-bromo-7-methoxy-3-(propan-2-yl)-3H-imidazo[4,5-b]pyridin-2-yl](cyclopropyl)methyl]-5-methylpyrazine-2-carboxamide]	2 nM
Cc1cnc(C(=O)N[C@@H](CC2CC2)c2nc3cc(C(F)(F)F)cnc3n2C(C)C)cn1 [Example 6, N-[(1S)-2-cyclopropyl-1-[3-(propan-2-yl)-6-(trifluoromethyl)-3H-imidazo[4,5-b]pyridin-2-yl]ethyl]-5-methylpyrazine-2-carboxamide]	2 nM
Cc1cnc(C(=O)N[C@H](c2nc3ccc(C(F)(F)F)nc3n2C(C)C)C2CC2)cn1 [Example 8, N-[(S)-cyclopropyl[3-(propan-2-yl)-5-(trifluoromethyl)-3H-imidazo[4,5-b]pyridin-2-yl]methyl]-5-methylpyrazine-2-carboxamide]	3 nM
COC(C)(C)[C@H](NC(=O)c1cnc(C)cn1)c1nc2cc(Cl)cnc2n1C(C)C [Example 9, N-[(1R)-1-[6-chloro-3-(propan-2-yl)-3H-imidazo[4,5-b]pyridin-2-yl]-2-methoxy-2-methylpropyl]-5-methylpyrazine-2-carboxamide]	3 nM
Cc1cnc(C(=O)N[C@H](c2nc3cc(Cl)cnc3n2C(C)C)C2CC2)cn1 [Example 10, N-[(S)-[6-chloro-3-(propan-2-yl)-3H-imidazo[4,5-b]pyridin-2-yl](cyclopropyl)methyl]-5-methylpyrazine-2-carboxamide]	4 nM
CO[C@H](C)[C@H](NC(=O)c1cnc(C)cn1)c1nc2cc(C(F)(F)F)cnc2n1C(C)C [Example 12, N-[(1R,2R)-2-methoxy-1-[3-(propan-2-yl)-6-(trifluoromethyl)-3H-imidazo[4,5-b]pyridin-2-yl]propyl]-5-methylpyrazine-2-carboxamide]	4 nM
CO[C@H](C)[C@H](NC(=O)c1cnc(C)cn1)c1nc2cc(Cl)cnc2n1C(C)C [Example 13, N-[(1R,2R)-1-[6-chloro-3-(propan-2-yl)-3H-imidazo[4,5-b]pyridin-2-yl]-2-methoxypropyl]-5-methylpyrazine-2-carboxamide]	4 nM
Cc1cnc(C(=O)N[C@H](c2nc3c(C)nc(C(F)(F)F)cc3n2C(C)C)C2CC2)cn1 [Example 16, N-[(S)-cyclopropyl[4-methyl-1-(propan-2-yl)-6-(trifluoromethyl)-1H-imidazo[4,5-c]pyridin-2-yl]methyl]-5-methylpyrazine-2-carboxamide]	13 nM
Cc1c(C#N)cnc2c1nc([C@@H](NC(=O)c1cnc(C(F)F)cn1)[C@H]1CCCO1)n2C(C)C [Example 17, N-[(R)-[6-cyano-7-methyl-3-(propan-2-yl)-3H-imidazo[4,5-b]pyridin-2-yl][(2R)-oxolan-2-yl]methyl]-5-(difluoromethyl)pyrazine-2-carboxamide]	7 nM
Cc1cnc(C(=O)N[C@@H](C[C@H]2CCCO2)c2nc3c(C)c(C#N)cnc3n2C(C)C)cn1 [Example 18, N-[(1S)-1-[6-cyano-7-methyl-3-(propan-2-yl)-3H-imidazo[4,5-b]pyridin-2-yl]-2-[(2R)-oxolan-2-yl]ethyl]-5-methylpyrazine-2-carboxamide]	7 nM
Cc1nc(C(F)(F)F)cc2c1nc([C@@H](NC(=O)c1cnc(C(F)F)cn1)C1CC1)n2C(C)C [Example 22, N-[(S)-cyclopropyl[4-methyl-1-(propan-2-yl)-6-(trifluoromethyl)-1H-imidazo[4,5-c]pyridin-2-yl]methyl]-5-(difluoromethyl)pyrazine-2-carboxamide]	10 nM

Results, then the compound that gave them:

IC50	SMILES
1 nM	COC(C)(C)[C@H](NC(=O)c1cnc(C(F)F)cn1)c1nc2c(C)c(C#N)cnc2n1C(C)C [Example 1, N-[(1R)-1-[6-cyano-7-methyl-3-(propan-2-yl)-3H-imidazo[4,5-b]pyridin-2-yl]-2-methoxy-2-methylpropyl]-5-(difluoromethyl)pyrazine-2-carboxamide]
2 nM	COC(C)(C)[C@H](NC(=O)c1cnc(C)cn1)c1nc2c(C)c(C#N)cnc2n1C(C)C [Example 2, N-[(IR)-1-[6-cyano-7-methyl-3-(propan-2-yl)-3H-imidazo[4,5-b]pyridin-2-yl]-2-methoxy-2-methylpropyl]-5-methylpyrazine-2-carboxamide]
2 nM	Cc1c(C#N)cnc2c1nc([C@@H](NC(=O)c1cnc(C(F)F)cn1)C1CC1)n2C(C)C [Example 4, N-[(S)-[6-cyano-7-methyl-3-(propan-2-yl)-3H-imidazo[4,5-b]pyridin-2-yl](cyclopropyl)methyl]-5-(difluoromethyl)pyrazine-2-carboxamide]
3 nM	Cc1c(C#N)cnc2c1nc([C@@H](NC(=O)c1cnc(C(F)F)cn1)C1CCC1)n2C(C)C [Example 7, N-[(S)-[6-cyano-7-methyl-3-(propan-2-yl)-3H-imidazo[4,5-b]pyridin-2-yl](cyclobutyl)methyl]-5-(difluoromethyl)pyrazine-2-carboxamide]
4 nM	Cc1c(C#N)cnc2c1nc([C@H](CC1CC1)NC(=O)c1cnc(C(F)F)cn1)n2C(C)C [Example 11, N-[(1S)-1-[6-cyano-7-methyl-3-(propan-2-yl)-3H-imidazo[4,5-b]pyridin-2-yl]-2-cyclopropylethyl]-5-(difluoromethyl)pyrazine-2-carboxamide]
5 nM	Cc1cnc(C(=O)N[C@@H](CC2CC2)c2nc3c(C)c(C#N)cnc3n2C(C)C)cn1 [Example 14, N-[(1S)-1-[6-cyano-7-methyl-3-(propan-2-yl)-3H-imidazo[4,5-b]pyridin-2-yl]-2-cyclopropylethyl]-5-methylpyrazine-2-carboxamide]
6 nM	Cc1cnc(C(=O)N[C@H](c2nc3c(C)c(C#N)cnc3n2C(C)C)C2CCC2)cn1 [Example 15, N-[(S)-[6-cyano-7-methyl-3-(propan-2-yl)-3H-imidazo[4,5-b]pyridin-2-yl](cyclobutyl)methyl]-5-methylpyrazine-2-carboxamide]
8 nM	CO[C@H](C)[C@H](NC(=O)c1cnc(C(F)F)cn1)c1nc2c(C)c(C#N)cnc2n1C(C)C [Example 19, N-[(1R,2R)-1-[6-cyano-7-methyl-3-(propan-2-yl)-3H-imidazo[4,5-b]pyridin-2-yl]-2-methoxypropyl]-5-(difluoromethyl)pyrazine-2-carboxamide]
8 nM	Cc1c(C#N)cnc2c1nc([C@@H](NC(=O)c1cnc(C(F)F)cn1)[C@@H](C)OC(F)F)n2C(C)C [Example 20, N-[(1R,2R)-1-[6-cyano-7-methyl-3-(propan-2-yl)-3H-imidazo[4,5-b]pyridin-2-yl]-2-(difluoromethoxy)propyl]-5-(difluoromethyl)pyrazine-2-carboxamide]
9 nM	Cc1cnc(C(=O)N[C@H](c2nc3c(C)c(C#N)cnc3n2C(C)C)[C@@H](C)OC(F)F)cn1 [Example 21, N-[(1R,2R)-1-[6-cyano-7-methyl-3-(propan-2-yl)-3H-imidazo[4,5-b]pyridin-2-yl]-2-(difluoromethoxy)propyl]-5-methylpyrazine-2-carboxamide]
